# Reference: ChEMBL document CHEMBL2440076, “New triarylpyrazoles as broad-spectrum anticancer agents: design, synthesis, and biological evaluation” (Eur J Med Chem, 2013)
# Assays:
# NCI-H460 = test: Growth inhibition of human NCI-H460 cells after 48 hrs by sulforhodamine B assay; type: functional; settings: NCI-H460, 48 h
# BT-549 = test: Growth inhibition of human BT549 cells after 48 hrs by sulforhodamine B assay; type: functional; settings: BT-549, 48 h
# HOP-62 = test: Growth inhibition of human HOP62 cells assessed as cell growth at 10 uM after 48 hrs by sulforhodamine B assay; type: functional; settings: HOP-62, 48 h, read-out: Activity
# U-251 = test: Growth inhibition of human U251 cells assessed as cell growth at 10 uM after 48 hrs by sulforhodamine B assay; type: functional; settings: U-251, 48 h, read-out: Activity
# NCI-H322M = test: Growth inhibition of human NCI-H322M cells after 48 hrs by sulforhodamine B assay; type: functional; settings: for CC50: read-out: LC50 (the source's name)
# HL-60(TB) = test: Growth inhibition of human HL-60(TB) cells after 48 hrs by sulforhodamine B assay; type: functional; settings: HL-60, 48 h; for CC50: read-out: LC50 (the source's name)
# T47D = test: Growth inhibition of human T47D cells assessed as cell growth at 10 uM after 48 hrs by sulforhodamine B assay; type: functional; settings: read-out: Activity
# DU-145 = test: Growth inhibition of human DU145 cells assessed as cell growth at 10 uM after 48 hrs by sulforhodamine B assay; type: functional; settings: DU-145, 48 h, read-out: Activity
# MOLT-4 = test: Growth inhibition of human MOLT4 cells after 48 hrs by sulforhodamine B assay; type: functional; settings: MOLT-4, 48 h; for CC50: read-out: LC50 (the source's name)
# RXF 393 = test: Growth inhibition of human RXF393 cells after 48 hrs by sulforhodamine B assay; type: functional; settings: RXF 393, 48 h
# OVCAR-5 [1] = test: Growth inhibition of human OVCAR5 cells after 48 hrs by sulforhodamine B assay; type: functional; settings: OVCAR-5, 48 h
# PC-3 = test: Growth inhibition of human PC3 cells after 48 hrs by sulforhodamine B assay; type: functional, cell-based; settings: PC-3, 48 h; for CC50: read-out: LC50 (the source's name)
# NCI-H23 = test: Growth inhibition of human NCI-H23 cells assessed as cell growth at 10 uM after 48 hrs by sulforhodamine B assay; type: functional; settings: NCI-H23, 48 h, read-out: Activity
# SF-295 = test: Growth inhibition of human SF295 cells after 48 hrs by sulforhodamine B assay; type: functional, cell-based; settings: SF-295, 48 h; for CC50: read-out: LC50 (the source's name)
# SK-MEL-2 = test: Growth inhibition of human SK-MEL-2 cells after 48 hrs by sulforhodamine B assay; type: functional; settings: SK-MEL-2, 48 h
# UACC-257 = test: Growth inhibition of human UACC257 cells after 48 hrs by sulforhodamine B assay; type: functional; settings: UACC-257, 48 h; for CC50: read-out: LC50 (the source's name)
# KM12 = test: Growth inhibition of human KM12 cells after 48 hrs by sulforhodamine B assay; type: functional, cell-based; settings: KM12, 48 h; for CC50: read-out: LC50 (the source's name)
# OVCAR-5 [2] = test: Growth inhibition of human OVCAR5 cells assessed as cell growth at 10 uM after 48 hrs by sulforhodamine B assay; type: functional; settings: OVCAR-5, 48 h, read-out: Activity
# IGROV-1 = test: Growth inhibition of human IGROV1 cells after 48 hrs by sulforhodamine B assay; type: functional; settings: IGROV-1, 48 h
# SW-620 = test: Growth inhibition of human SW620 cells assessed as cell growth at 10 uM after 48 hrs by sulforhodamine B assay; type: functional; settings: SW-620, 48 h, read-out: Activity
# MDA-MB-231 [3] = test: Growth inhibition of human MDA-MB-231 cells assessed as cell growth at 10 uM after 48 hrs by sulforhodamine B assay; type: functional; settings: MDA-MB-231, 48 h, read-out: Activity
# MCF7 = test: Growth inhibition of human MCF7 cells after 48 hrs by sulforhodamine B assay; type: functional; settings: MCF7, 48 h
# [4] = Growth inhibition of human NCI-ADR-RES cells after 48 hrs by sulforhodamine B assay; type: functional; settings: for CC50: read-out: LC50 (the source's name)
# MDA-MB-435 = test: Growth inhibition of human MDA-MB-435 cells after 48 hrs by sulforhodamine B assay; type: functional, cell-based; settings: MDA-MB-435, 48 h
# MDA-MB-231 [5] = test: Growth inhibition of human MDA-MB-231 cells after 48 hrs by sulforhodamine B assay; type: functional; settings: MDA-MB-231, 48 h
# RPMI-8226 = test: Growth inhibition of human RPMI8226 cells assessed as cell growth at 10 uM after 48 hrs by sulforhodamine B assay; type: functional; settings: RPMI-8226, 48 h, read-out: Activity
# SK-MEL-28 = test: Growth inhibition of human SK-MEL-28 cells assessed as cell growth at 10 uM after 48 hrs by sulforhodamine B assay; type: functional; settings: SK-MEL-28, 48 h, read-out: Activity
# CCRF-CEM = test: Growth inhibition of human CCRF-CEM cells after 48 hrs by sulforhodamine B assay; type: functional
# K562 = test: Growth inhibition of human K562 cells assessed as cell growth at 10 uM after 48 hrs by sulforhodamine B assay; type: functional; settings: K562, 48 h, read-out: Activity
# [6] = Growth inhibition of human Hs 578T cells after 48 hrs by sulforhodamine B assay; type: functional; settings: for CC50: read-out: LC50 (the source's name)
# SF-268 = test: Growth inhibition of human SF268 cells assessed as cell growth at 10 uM after 48 hrs by sulforhodamine B assay; type: functional; settings: SF-268, 48 h, read-out: Activity
# M14 = test: Growth inhibition of human M14 cells assessed as cell growth at 10 uM after 48 hrs by sulforhodamine B assay; type: functional; settings: M14, 48 h, read-out: Activity
# COLO 205 = test: Growth inhibition of human COLO205 cells assessed as cell growth at 10 uM after 48 hrs by sulforhodamine B assay; type: functional; settings: COLO 205, 48 h, read-out: Activity
smiles,measurement,setting,value
COc1cc(-c2nn(-c3cccc(NC(=O)c4cccc(C(F)(F)F)c4)c3)cc2-c2ccncc2)ccc1Cl,GI50,NCI-H460,1450 nM
same,LC50,NCI-H460,> 50000 nM
same,TGI,NCI-H460,9270 nM
same,GI50,BT-549,2870 nM
same,LC50 (50% lethal concentration),BT-549,> 50000 nM
same,TGI,BT-549,46800 nM
same,growth at 10 µM,HOP-62,22.9%
same,growth at 10 µM,U-251,13.1%
same,GI50,NCI-H322M,10800 nM
same,TGI,NCI-H322M,> 50000 nM
same,CC50,NCI-H322M,> 50000 nM
same,GI50,HL-60(TB),2020 nM
same,TGI,HL-60(TB),> 50000 nM
same,CC50,HL-60(TB),> 50000 nM
same,growth at 10 µM,T47D,29%
same,growth at 10 µM,DU-145,2.16%
same,GI50,MOLT-4,2010 nM
same,TGI,MOLT-4,> 50000 nM
same,CC50,MOLT-4,> 50000 nM
same,GI50,RXF 393,811 nM
same,LC50 (concentration killing 50% of cells),RXF 393,> 50000 nM
same,TGI,RXF 393,3150 nM
same,GI50,OVCAR-5 [1],4010 nM
same,LC50 (concentration killing 50% of cells),OVCAR-5 [1],> 50000 nM
same,TGI,OVCAR-5 [1],> 50000 nM
same,GI50,PC-3,1230 nM
same,IC50,PC-3,1230 nM
same,TGI,PC-3,> 50000 nM
same,CC50,PC-3,> 50000 nM
same,growth at 10 µM,NCI-H23,24.8%
same,GI50,SF-295,1020 nM
same,IC50,SF-295,1020 nM
same,TGI,SF-295,3000 nM
same,CC50,SF-295,> 50000 nM
same,GI50,SK-MEL-2,1560 nM
same,LC50 (50% lethal concentration),SK-MEL-2,> 50000 nM
same,TGI,SK-MEL-2,> 50000 nM
same,GI50,UACC-257,27900 nM
same,TGI,UACC-257,> 50000 nM
same,CC50,UACC-257,> 50000 nM
same,GI50,KM12,1660 nM
same,TGI,KM12,> 50000 nM
same,CC50,KM12,> 50000 nM
same,growth at 10 µM,OVCAR-5 [2],49.4%
same,GI50,IGROV-1,1830 nM
same,LC50 (concentration killing 50% of cells),IGROV-1,> 50000 nM
same,TGI,IGROV-1,> 50000 nM
same,growth at 10 µM,SW-620,36%
same,growth at 10 µM,MDA-MB-231 [3],4.67%
same,GI50,MCF7,1430 nM
same,LC50,MCF7,> 50000 nM
same,TGI,MCF7,> 50000 nM
same,GI50,[4],1090 nM
same,TGI,[4],3170 nM
same,CC50,[4],> 50000 nM
same,GI50,MDA-MB-435,705 nM
same,IC50,MDA-MB-435,710 nM
same,TGI,MDA-MB-435,1770 nM
same,GI50,MDA-MB-231 [5],1240 nM
same,LC50,MDA-MB-231 [5],> 50000 nM
same,TGI,MDA-MB-231 [5],9960 nM
same,growth at 10 µM,RPMI-8226,-1.13%
same,growth at 10 µM,SK-MEL-28,32.5%
same,GI50,CCRF-CEM,1450 nM
same,LC50,CCRF-CEM,> 50000 nM
same,TGI,CCRF-CEM,> 50000 nM
same,growth at 10 µM,K562,6.11%
same,GI50,[6],1070 nM
same,TGI,[6],> 50000 nM
same,CC50,[6],> 50000 nM
same,growth at 10 µM,SF-268,30.5%
same,growth at 10 µM,M14,12.3%
same,growth at 10 µM,COLO 205,7.11%
COc1cc(-c2nn(-c3cccc(NC(=O)Nc4ccc(Cl)c(Cl)c4)c3)cc2-c2ccncc2)ccc1Cl,GI50,NCI-H460,1110 nM
same,LC50,NCI-H460,> 50000 nM
same,TGI,NCI-H460,> 50000 nM
same,GI50,BT-549,1680 nM
same,LC50 (50% lethal concentration),BT-549,> 50000 nM
same,TGI,BT-549,27600 nM
same,growth at 10 µM,HOP-62,10.2%
same,growth at 10 µM,U-251,-6.02%
same,GI50,NCI-H322M,1690 nM
same,TGI,NCI-H322M,> 50000 nM
same,CC50,NCI-H322M,> 50000 nM
same,GI50,HL-60(TB),1660 nM
same,TGI,HL-60(TB),> 50000 nM
same,CC50,HL-60(TB),> 50000 nM
same,growth at 10 µM,T47D,2.98%
same,growth at 10 µM,DU-145,20%
same,GI50,MOLT-4,1100 nM
same,TGI,MOLT-4,4480 nM
same,CC50,MOLT-4,> 50000 nM
same,GI50,RXF 393,859 nM
same,LC50 (concentration killing 50% of cells),RXF 393,> 50000 nM
same,TGI,RXF 393,2440 nM
same,GI50,OVCAR-5 [1],2130 nM
same,LC50 (concentration killing 50% of cells),OVCAR-5 [1],> 50000 nM
same,TGI,OVCAR-5 [1],> 50000 nM
same,GI50,PC-3,554 nM
same,IC50,PC-3,550 nM
same,TGI,PC-3,2830 nM
same,CC50,PC-3,> 50000 nM
same,growth at 10 µM,NCI-H23,1.67%
same,GI50,SF-295,691 nM
same,IC50,SF-295,690 nM
same,TGI,SF-295,2530 nM
same,CC50,SF-295,> 50000 nM
same,GI50,SK-MEL-2,1140 nM
same,LC50 (50% lethal concentration),SK-MEL-2,4850 nM
same,TGI,SK-MEL-2,2350 nM
same,GI50,UACC-257,1040 nM
same,TGI,UACC-257,3110 nM
same,CC50,UACC-257,> 50000 nM
same,GI50,KM12,811 nM
same,IC50,KM12,810 nM
same,TGI,KM12,2770 nM
same,CC50,KM12,49500 nM
same,growth at 10 µM,OVCAR-5 [2],38%
same,GI50,IGROV-1,1180 nM
same,LC50 (concentration killing 50% of cells),IGROV-1,> 50000 nM
same,TGI,IGROV-1,3480 nM
same,growth at 10 µM,SW-620,13.4%
same,growth at 10 µM,MDA-MB-231 [3],-40.1%
same,GI50,MCF7,945 nM
same,LC50,MCF7,> 50000 nM
same,TGI,MCF7,> 50000 nM
same,GI50,[4],990 nM
same,TGI,[4],4670 nM
same,CC50,[4],> 50000 nM
same,GI50,MDA-MB-435,938 nM
same,IC50,MDA-MB-435,940 nM
same,TGI,MDA-MB-435,2390 nM
same,CC50,MDA-MB-435; read-out: LC50 (the source's name),> 50000 nM
same,GI50,MDA-MB-231 [5],698 nM
same,LC50,MDA-MB-231 [5],12900 nM
same,TGI,MDA-MB-231 [5],1920 nM
same,growth at 10 µM,RPMI-8226,-11.6%
same,growth at 10 µM,SK-MEL-28,4.96%
same,GI50,CCRF-CEM,1040 nM
same,LC50,CCRF-CEM,> 50000 nM
same,growth at 10 µM,K562,3.63%
same,GI50,[6],1430 nM
same,TGI,[6],> 50000 nM
same,CC50,[6],> 50000 nM
same,growth at 10 µM,SF-268,17.9%
same,growth at 10 µM,M14,0.29%
same,growth at 10 µM,COLO 205,-80.4%
